{"source": "ChEMBL document CHEMBL1201862", "about": "“PubChem BioAssay data set” (2004)", "key": {"[1]": {"assay": "microbe, parasite or virus in culture", "type": "functional", "conditions": "Mycobacterium tuberculosis"}, "[2]": {"molecular_target": "T1, Microphthalmia-associated transcription factor (Homo sapiens, UniProt O75030)", "T1 sequence (O75030 whole entry)": "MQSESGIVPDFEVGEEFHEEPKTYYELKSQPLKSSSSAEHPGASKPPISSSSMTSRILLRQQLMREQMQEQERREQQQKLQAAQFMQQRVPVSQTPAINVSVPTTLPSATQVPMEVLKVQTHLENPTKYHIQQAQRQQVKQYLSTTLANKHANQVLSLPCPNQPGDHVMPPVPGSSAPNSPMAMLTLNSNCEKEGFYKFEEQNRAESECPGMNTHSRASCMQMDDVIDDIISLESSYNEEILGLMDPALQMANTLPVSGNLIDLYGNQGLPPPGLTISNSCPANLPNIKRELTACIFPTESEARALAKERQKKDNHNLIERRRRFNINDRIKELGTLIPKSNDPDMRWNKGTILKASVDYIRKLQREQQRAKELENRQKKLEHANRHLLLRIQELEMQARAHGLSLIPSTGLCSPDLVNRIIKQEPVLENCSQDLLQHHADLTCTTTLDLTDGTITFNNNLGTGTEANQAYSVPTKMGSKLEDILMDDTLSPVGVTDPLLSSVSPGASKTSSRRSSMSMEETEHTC", "assay": "TRPM1 promoter luciferase signal decrease, dose response, MITF inhibitor project, cell-based, SK-MEL-5, cherry-picked, set 3 (AID 493073)", "type": "functional"}, "[3]": {"molecular_target": "Induced myeloid leukemia cell differentiation protein Mcl-1 (Homo sapiens, UniProt Q07820)", "sequence (Q07820 whole entry)": "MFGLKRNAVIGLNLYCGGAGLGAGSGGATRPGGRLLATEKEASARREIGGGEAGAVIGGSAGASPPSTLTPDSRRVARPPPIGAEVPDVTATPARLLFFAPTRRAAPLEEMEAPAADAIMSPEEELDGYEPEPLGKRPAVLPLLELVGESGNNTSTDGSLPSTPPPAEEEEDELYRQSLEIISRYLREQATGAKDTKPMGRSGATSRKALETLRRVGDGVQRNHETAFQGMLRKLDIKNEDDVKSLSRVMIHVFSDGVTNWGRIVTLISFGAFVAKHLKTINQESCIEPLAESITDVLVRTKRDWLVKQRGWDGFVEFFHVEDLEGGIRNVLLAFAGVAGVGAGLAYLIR", "type": "functional"}, "[4]": {"molecular_target": "T2, High affinity choline transporter 1 (Homo sapiens, UniProt Q9GZV3)", "T2 sequence (Q9GZV3 whole entry)": "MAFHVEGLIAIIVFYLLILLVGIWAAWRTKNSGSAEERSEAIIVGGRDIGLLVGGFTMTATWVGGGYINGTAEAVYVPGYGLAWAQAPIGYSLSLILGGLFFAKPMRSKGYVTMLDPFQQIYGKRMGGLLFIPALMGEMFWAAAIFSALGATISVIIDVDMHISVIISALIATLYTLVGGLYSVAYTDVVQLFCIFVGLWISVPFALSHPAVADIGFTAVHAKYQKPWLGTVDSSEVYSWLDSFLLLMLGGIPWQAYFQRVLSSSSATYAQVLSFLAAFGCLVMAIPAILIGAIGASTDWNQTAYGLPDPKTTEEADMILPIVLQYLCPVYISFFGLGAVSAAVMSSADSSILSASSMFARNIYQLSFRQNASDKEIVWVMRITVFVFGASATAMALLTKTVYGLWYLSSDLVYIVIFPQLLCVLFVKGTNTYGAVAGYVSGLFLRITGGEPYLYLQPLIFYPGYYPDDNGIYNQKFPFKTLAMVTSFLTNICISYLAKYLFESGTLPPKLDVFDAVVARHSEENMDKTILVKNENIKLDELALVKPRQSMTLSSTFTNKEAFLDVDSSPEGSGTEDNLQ", "assay": "CHT inhibitors, dose response, cell-based, 5-point CRC, membrane potential dye (AID 504840)", "type": "functional"}, "[5]": {"assay": "Luminescence Cell-Based Dose Retest to Confirm Inhibitors of Cancer Stem Cells. [Related pubchem assays (depositor defined):AID2717, AID2721]", "type": "functional", "conditions": "Homo sapiens"}, "[6]": {"molecular_target": "T3, Calpain-2 catalytic subunit (Sus scrofa, UniProt P43367)", "T3 sequence (P43367 whole entry)": "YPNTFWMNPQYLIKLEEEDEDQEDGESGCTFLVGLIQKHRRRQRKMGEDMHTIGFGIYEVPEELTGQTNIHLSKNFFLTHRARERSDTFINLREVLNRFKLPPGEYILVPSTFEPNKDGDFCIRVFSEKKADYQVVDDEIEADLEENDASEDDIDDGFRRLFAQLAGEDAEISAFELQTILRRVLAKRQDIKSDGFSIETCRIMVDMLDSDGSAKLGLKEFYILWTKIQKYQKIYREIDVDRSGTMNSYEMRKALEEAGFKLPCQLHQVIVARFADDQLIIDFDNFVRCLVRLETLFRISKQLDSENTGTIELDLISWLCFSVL", "assay": "pig calpain II inhibitor potency, dose response, biochemical, fluorogenic peptide substrate (AID 1420)", "type": "functional"}, "[7]": {"molecular_target": "Peroxisome proliferator-activated receptor gamma/Nuclear receptor coactivator 2 (Homo sapiens, UniProt P37231)", "sequence (P37231 whole entry)": "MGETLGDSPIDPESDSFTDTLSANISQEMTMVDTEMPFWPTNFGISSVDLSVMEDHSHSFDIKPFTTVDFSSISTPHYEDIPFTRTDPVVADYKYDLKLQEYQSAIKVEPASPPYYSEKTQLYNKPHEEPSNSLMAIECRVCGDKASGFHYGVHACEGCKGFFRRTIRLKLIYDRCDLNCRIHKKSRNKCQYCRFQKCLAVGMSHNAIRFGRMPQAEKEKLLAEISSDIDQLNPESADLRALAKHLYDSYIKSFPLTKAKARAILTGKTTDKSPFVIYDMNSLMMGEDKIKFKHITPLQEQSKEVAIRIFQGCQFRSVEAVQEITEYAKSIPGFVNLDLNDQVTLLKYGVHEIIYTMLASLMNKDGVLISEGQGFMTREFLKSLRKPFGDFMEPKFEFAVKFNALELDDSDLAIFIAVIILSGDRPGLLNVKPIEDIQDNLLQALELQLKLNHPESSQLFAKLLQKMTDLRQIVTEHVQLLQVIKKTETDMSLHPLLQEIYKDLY", "sequence (Q15596 whole entry, further chain)": "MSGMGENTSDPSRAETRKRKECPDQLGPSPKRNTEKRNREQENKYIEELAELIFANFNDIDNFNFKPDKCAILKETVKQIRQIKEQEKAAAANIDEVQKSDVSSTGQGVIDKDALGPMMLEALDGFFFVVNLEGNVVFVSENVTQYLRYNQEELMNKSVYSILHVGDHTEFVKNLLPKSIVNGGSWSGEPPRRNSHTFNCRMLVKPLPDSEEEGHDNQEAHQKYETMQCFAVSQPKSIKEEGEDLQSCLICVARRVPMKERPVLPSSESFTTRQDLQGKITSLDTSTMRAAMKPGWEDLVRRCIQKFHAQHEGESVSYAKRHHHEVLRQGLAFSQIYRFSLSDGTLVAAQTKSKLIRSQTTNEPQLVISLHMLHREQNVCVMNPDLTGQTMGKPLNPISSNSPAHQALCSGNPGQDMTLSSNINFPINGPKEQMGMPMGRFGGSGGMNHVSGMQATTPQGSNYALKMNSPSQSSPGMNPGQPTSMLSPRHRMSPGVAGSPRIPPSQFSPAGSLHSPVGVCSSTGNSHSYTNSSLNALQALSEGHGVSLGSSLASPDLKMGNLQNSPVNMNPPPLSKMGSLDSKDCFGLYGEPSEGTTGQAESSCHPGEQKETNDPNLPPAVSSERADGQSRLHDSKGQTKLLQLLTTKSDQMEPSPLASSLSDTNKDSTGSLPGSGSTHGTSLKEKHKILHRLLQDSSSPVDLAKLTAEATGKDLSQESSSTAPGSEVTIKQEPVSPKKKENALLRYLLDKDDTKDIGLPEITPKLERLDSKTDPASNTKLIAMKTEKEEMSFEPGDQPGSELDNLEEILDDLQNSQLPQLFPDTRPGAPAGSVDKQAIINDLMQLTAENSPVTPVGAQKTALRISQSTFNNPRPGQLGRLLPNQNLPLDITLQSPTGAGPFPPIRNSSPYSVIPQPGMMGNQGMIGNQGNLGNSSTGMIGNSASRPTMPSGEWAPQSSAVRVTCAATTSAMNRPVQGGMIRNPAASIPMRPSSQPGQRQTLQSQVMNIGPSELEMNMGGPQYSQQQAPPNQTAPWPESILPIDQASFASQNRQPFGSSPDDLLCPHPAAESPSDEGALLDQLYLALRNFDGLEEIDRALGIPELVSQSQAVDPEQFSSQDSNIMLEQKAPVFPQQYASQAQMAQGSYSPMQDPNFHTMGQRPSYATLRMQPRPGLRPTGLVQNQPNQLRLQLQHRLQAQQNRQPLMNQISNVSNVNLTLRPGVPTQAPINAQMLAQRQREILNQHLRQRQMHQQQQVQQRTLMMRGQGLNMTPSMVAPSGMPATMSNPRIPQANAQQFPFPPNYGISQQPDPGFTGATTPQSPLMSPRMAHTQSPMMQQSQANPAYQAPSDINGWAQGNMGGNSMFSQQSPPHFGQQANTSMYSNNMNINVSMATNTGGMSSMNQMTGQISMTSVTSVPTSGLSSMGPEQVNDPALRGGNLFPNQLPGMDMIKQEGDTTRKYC", "type": "functional"}, "[8]": {"molecular_target": "Peroxisome proliferator-activated receptor gamma/Nuclear receptor coactivator 1 (Homo sapiens, UniProt P37231)", "type": "functional"}, "[9]": {"molecular_target": "Peroxisome proliferator-activated receptor gamma/Nuclear receptor coactivator 3 (Homo sapiens, UniProt P37231)", "sequence (P37231 whole entry)": "as the sequence (P37231 whole entry) above", "sequence (Q9Y6Q9 whole entry, further chain)": "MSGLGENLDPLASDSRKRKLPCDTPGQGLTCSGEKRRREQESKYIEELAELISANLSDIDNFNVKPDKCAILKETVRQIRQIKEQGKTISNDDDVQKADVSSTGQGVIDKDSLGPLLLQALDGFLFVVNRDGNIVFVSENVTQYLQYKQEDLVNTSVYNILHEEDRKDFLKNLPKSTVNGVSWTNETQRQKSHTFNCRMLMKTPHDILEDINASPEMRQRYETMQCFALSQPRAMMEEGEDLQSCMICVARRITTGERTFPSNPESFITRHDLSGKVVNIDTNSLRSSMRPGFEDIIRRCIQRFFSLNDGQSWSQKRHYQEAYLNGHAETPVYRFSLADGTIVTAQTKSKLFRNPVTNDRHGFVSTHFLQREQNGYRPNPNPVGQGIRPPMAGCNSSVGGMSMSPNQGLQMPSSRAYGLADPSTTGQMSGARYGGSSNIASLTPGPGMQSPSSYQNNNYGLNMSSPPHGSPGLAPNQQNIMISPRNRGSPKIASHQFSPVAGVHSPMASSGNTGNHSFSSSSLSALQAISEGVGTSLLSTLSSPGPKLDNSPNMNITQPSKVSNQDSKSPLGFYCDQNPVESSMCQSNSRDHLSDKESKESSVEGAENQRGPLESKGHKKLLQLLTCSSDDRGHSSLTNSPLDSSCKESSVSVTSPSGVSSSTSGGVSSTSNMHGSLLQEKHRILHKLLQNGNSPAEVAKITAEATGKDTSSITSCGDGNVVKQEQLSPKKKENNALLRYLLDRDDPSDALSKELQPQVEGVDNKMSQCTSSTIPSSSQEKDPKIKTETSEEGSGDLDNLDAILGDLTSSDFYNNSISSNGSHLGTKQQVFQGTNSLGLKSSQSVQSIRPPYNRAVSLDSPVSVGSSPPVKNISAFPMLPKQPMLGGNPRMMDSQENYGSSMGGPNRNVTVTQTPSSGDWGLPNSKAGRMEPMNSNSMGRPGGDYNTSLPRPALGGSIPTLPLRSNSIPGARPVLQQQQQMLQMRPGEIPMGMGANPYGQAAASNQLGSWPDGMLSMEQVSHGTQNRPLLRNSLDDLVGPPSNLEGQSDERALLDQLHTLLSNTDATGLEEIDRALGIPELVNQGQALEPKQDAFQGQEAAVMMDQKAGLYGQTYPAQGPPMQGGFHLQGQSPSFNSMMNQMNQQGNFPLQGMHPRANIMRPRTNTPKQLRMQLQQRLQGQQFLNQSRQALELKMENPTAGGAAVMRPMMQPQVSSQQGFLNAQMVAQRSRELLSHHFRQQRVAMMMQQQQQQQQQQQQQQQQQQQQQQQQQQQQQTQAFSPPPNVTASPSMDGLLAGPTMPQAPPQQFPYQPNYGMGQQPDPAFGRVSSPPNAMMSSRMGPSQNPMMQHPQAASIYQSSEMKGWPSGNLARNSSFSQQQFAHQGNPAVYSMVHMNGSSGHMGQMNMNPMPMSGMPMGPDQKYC", "type": "functional"}, "[10]": {"molecular_target": "T4, Mannose-6-phosphate isomerase (Homo sapiens, UniProt P34949)", "T4 sequence (P34949 whole entry)": "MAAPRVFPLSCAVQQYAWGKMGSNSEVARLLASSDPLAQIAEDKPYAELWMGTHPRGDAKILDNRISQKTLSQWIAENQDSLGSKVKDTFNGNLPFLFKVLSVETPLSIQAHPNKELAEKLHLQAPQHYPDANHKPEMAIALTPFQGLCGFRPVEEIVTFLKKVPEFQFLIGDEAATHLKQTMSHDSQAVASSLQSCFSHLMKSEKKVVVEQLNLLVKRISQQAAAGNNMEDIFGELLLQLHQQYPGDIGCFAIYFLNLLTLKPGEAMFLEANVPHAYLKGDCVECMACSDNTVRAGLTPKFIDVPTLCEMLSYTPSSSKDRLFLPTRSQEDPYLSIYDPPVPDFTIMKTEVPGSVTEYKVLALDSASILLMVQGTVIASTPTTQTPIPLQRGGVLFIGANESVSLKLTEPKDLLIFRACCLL", "assay": "human PMI inhibitors, high substrate, primary screen, biochemical, fluorescence intensity, high mannose 6-phosphate (AID 1220)"}, "[11]": {"system": "Streptococcus sp. 'group A'", "assay": "growth inhibition of control SK(-) GAS strain, dose response, counter-screen for streptokinase expression inhibitor project, luminescence, kanamycin, BacTiterGlo, confirmation (AID 1900)", "type": "functional, organism-based"}, "Streptokinase A": {"molecular_target": "T5, Streptokinase A (Streptococcus pyogenes serotype M1, UniProt P10520)", "T5 sequence (P10520 whole entry)": "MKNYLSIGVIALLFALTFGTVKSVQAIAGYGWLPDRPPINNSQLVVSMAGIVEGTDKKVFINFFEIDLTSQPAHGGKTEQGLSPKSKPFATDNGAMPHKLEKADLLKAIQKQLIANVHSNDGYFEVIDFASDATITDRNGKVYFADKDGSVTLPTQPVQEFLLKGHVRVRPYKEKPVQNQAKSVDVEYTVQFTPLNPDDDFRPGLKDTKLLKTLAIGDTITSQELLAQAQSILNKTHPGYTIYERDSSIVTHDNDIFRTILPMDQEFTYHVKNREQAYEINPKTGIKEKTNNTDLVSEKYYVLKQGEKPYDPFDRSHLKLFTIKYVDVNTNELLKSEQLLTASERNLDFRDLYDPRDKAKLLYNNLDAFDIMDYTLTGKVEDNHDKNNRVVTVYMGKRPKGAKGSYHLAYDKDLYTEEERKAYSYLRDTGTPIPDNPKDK", "assay": "S. pyogenes streptokinase expression inhibitors, potency, dose response, plasminogen activation absorbance, OD405 (AID 1914);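 also: secreted streptokinase activity via plasminogen activation per viability signal from cell pellet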", "type": "functional, Streptococcus pyogenes M1 GAS"}, "Streptococcus": {"system": "Streptococcus", "assay": "Group A Streptococcus viability loss, dose response, counter-screen for streptokinase expression inhibitor project, luminescence, BacTiterGlo (AID 1915);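 also: potency for reduction of bacterial viability or growth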", "type": "functional, organism-based"}, "[12]": {"assay": "A549 cell cytotoxicity, dose response, cytotoxicity control, plate reader, cherry-pick, antagonist series (AID 743412)", "type": "functional, cell-based"}, "[13]": {"assay": "MC4R antagonists, dose response, counter-screen for LGR2 antagonist project, cell-based, plate reader, cherry pick (AID 743444);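 also: transfected HEK 293 cells stimulated with alpha-MSH peptide; potency of inhibitors of the alpha-MSH evoked signal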", "type": "functional"}}, "note": "Activity calls are given as the source filed them."}
{"smiles": "COc1ccc(C(CC(=O)c2ccccc2)S(=O)(=O)c2ccc(C)cc2)cc1", "note": "(centres undefined)", "values": [{"measurement": "CC50", "setting": "[1]", "result": "> 40 µM (active)"}]}
{"smiles": "O=C(CSc1nnnn1-c1ccc(O)cc1)Nc1cccc(S(=O)(=O)N2CCCC2)c1", "values": [{"measurement": "AC50", "setting": "[2]", "result": "50.2 µM (active)"}]}
{"smiles": "CCOc1ccc(-c2ccc(/C=C3/C(=N)N4C=CSC4=NC3=O)o2)c([N+](=O)[O-])c1", "values": [{"measurement": "IC50", "setting": "[3]", "result": "1.48 µM (active)"}]}
{"smiles": "COc1ccc(C(=O)N2c3ccccc3CC2C)cc1OC", "note": "(centres undefined)", "values": [{"measurement": "IC50", "setting": "[3]", "result": "0.799 µM (not active)"}]}
{"smiles": "O=C(NNc1nc(-c2ccccc2)cs1)c1ccccc1", "values": [{"measurement": "CC50", "setting": "[1]", "result": "> 40 µM (active)"}, {"measurement": "IC50", "setting": "[4]", "result": "14.5 µM (active)"}]}
{"smiles": "c1ccc(-c2c3c4ccccc4nc-3[nH]c3ccccc23)cc1", "values": [{"measurement": "CC50", "setting": "[1]", "result": "> 40 µM (active)"}, {"measurement": "AC50", "setting": "[5]", "result": "2.03 µM (active)"}]}
{"smiles": "O=C(NC(=S)NCC1CCCO1)c1ccc(Br)o1", "note": "(centres undefined)", "values": [{"measurement": "IC50", "setting": "[6]", "result": "1.43 µM (not active)"}]}
{"smiles": "Cc1ccc(C(=O)Nc2nnc(-c3cccs3)s2)cc1C", "values": [{"measurement": "EC50", "setting": "[7]", "result": "9.65 µM (active)"}, {"measurement": "EC50", "setting": "[8]", "result": "9.78 µM (active)"}, {"measurement": "EC50", "setting": "[9]", "result": "> 79.4 µM (not active)"}]}
{"smiles": "CCOC(=O)c1c(N)sc(N)c1C(=O)OCC", "values": [{"measurement": "IC50", "setting": "[10]", "result": "> 50 µM (not active)"}]}
{"smiles": "Oc1c(Cl)cc(Cl)cc1C(C#Cc1ccccc1)N1CCOCC1", "note": "(centres undefined)", "values": [{"measurement": "EC50", "setting": "[11]", "result": "16.6 µM (active)"}, {"measurement": "EC50", "setting": "Streptokinase A", "result": "26.8 µM (active)"}, {"measurement": "IC50", "setting": "[6]", "result": "12.8 µM (not active)"}, {"measurement": "EC50", "setting": "Streptococcus", "result": "48.9 µM (active)"}]}
{"smiles": "N#C[C@@H]1[C@H](c2ccc(C#CC3CCCCC3)cc2)[C@@H](CO)N1C(=O)c1cccc(F)c1", "values": [{"measurement": "AC50", "setting": "[12]", "result": "35.8 µM (active)"}, {"measurement": "AC50", "setting": "[13]", "result": "36.1 µM (active)"}]}
